Target: T1, 11β-HSD1 (Homo sapiens, UniProt P28845)
T1 construct: detecting cortisol generated from cortisterone by human liver microsomes; from tissue; host or cells: human liver microsomes
Assay: In vitro inhibition of 11β-HSD1, HTRF detection of cortisol generated from cortisone by human liver microsomes
Type: biochemical
Conditions: 11β-HSD IC50 (nM), 1 hour at 37° C., pH 6.0, NADPH 200 μM, cortisone 80 nM, inhibition relative to carbenoxolone signal
Outline: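 Inhibition expressed against the carbenoxolone signal and fitted to IC50 curves. Readout: HTRF competition between microsomal cortisol and XL665-labelled cortisol for Eu-cryptate anti-cortisol antibody (typically 2 h), with emission ratio 665/615 calibrated to cortisol concentration.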

T1 sequence (P28845 whole entry): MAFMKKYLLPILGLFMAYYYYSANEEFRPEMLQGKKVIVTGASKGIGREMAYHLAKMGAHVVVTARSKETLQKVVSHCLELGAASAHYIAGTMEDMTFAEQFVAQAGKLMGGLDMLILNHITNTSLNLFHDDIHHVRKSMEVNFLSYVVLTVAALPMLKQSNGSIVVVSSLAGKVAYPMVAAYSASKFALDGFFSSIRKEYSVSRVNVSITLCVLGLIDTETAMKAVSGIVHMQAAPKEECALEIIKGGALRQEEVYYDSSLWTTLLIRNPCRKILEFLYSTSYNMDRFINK

Going from `CNC(=O)c1cccc(C(=O)N2CC[C@@]3(C)c4cccc(O)c4C[C@@H]2C3(C)C)c1` [Example 39, 3-[(2R,6S)-10-Hydroxy-6,11,11-trimethyl-1,2,5,6-tetrahydro-4H-2,6-methano-benzo[d]azocine-3-carbonyl]-N-methyl-benzamide] to `CC1(C)[C@H]2Cc3c(O)cccc3[C@]1(C)CCN2C(=O)c1cccc(C(N)=O)c1` [Example 41, 3-[(2R,6S)-10-Hydroxy-6,11,11-trimethyl-1,2,5,6-tetrahydro-4H-2,6-methano-benzo[d]azocine-3-carbonyl]-benzamide], the IC50 falls from 1590 nM to 589 nM (2.7-fold). The second is the more potent here.

Going from `COC[C@H]1CCCN1C(=O)c1cccc(C(=O)N2CC[C@@]3(C)c4cccc(O)c4C[C@@H]2C3(C)C)c1` [Example 40, [(2R,6S)-10-Hydroxy-6,11,11-trimethyl-1,2,5,6-tetrahydro-4H-2,6-methano-benzo[d]azocin-3-yl]-[3-((R)-2-methoxymethyl-pyrrolidine-1-carbonyl)-phenyl]-methanone] to `COC(=O)c1ccc(C(=O)N2CC[C@@]3(C)c4cccc(O)c4C[C@@H]2C3(C)C)cc1` [Example 50, 4-[(2R,6S)-10-Hydroxy-6,11,11-trimethyl-1,2,5,6-tetrahydro-4H-2,6-methano-benzo[d]azocine-3-carbonyl]-benzoic acid methyl ester], the IC50 rises from 542 nM to 3000 nM (5.5-fold). The first is the more potent here.

First: COC(=O)c1cc(Cl)cc(C(=O)N2CC[C@@]3(C)c4cccc(O)c4C[C@@H]2C3(C)C)c1 [Example 42, 3-Chloro-5-[(2R,6S)-10-hydroxy-6,11,11-trimethyl-1,2,5,6-tetrahydro-4H-2,6-methano-benzo[d]azocine-3-carbonyl]-benzoic acid methyl ester]
Second: COC(=O)c1cc(F)cc(C(=O)N2CC[C@@]3(C)c4cccc(O)c4C[C@@H]2C3(C)C)c1 [Example 43, 3-Fluoro-5-[(2R,6S)-10-hydroxy-6,11,11-trimethyl-1,2,5,6-tetrahydro-4H-2,6-methano-benzo[d]azocine-3-carbonyl]-benzoic acid methyl ester]
The IC50 of the first is 2.6-fold higher: 4530 nM for the first, 1760 nM for the second. The second is the more potent here.

`CC1(C)[C@H]2Cc3c(O)cccc3[C@]1(C)CCN2C(=O)c1ccc2c(c1)NCC(=O)N2` [Example 44, 6-[(2R,6S)-10-Hydroxy-6,11,11-trimethyl-1,2,5,6-tetrahydro-4H-2,6-methano-benzo[d]azocine-3-carbonyl]-3,4-dihydro-1H-quinoxalin-2-one] and `CC1(C)[C@H]2Cc3c(O)cccc3[C@]1(C)CCN2C(=O)c1ccc2[nH]ccc2c1` [Example 49, [(2R,6S)-10-Hydroxy-6,11,11-trimethyl-1,2,5,6-tetrahydro-4H-2,6-methano-benzo[d]azocin-3-yl]-(1H-indol-5-yl)-methanone] are within 1.5-fold of each other in IC50: 200 nM for the first, 168 nM for the second.

First: CC1(C)[C@H]2Cc3c(O)cccc3[C@]1(C)CCN2C(=O)c1ccc2scnc2c1 [Example 45, Benzothiazol-5-yl-[(2R,6S)-10-hydroxy-6,11,11-trimethyl-1,2,5,6-tetrahydro-4H-2,6-methano-benzo[d]azocin-3-yl]-methanone]
Second: CC1(C)[C@H]2Cc3c(O)cccc3[C@]1(C)CCN2C(=O)c1ccc2ncsc2c1 [Example 46, Benzothiazol-6-yl-[(2R,6S)-10-hydroxy-6,11,11-trimethyl-1,2,5,6-tetrahydro-4H-2,6-methano-benzo[d]azocin-3-yl]-methanone]
The IC50 of the first is 4-fold higher: 384 nM for the first, 97 nM for the second.

Compared with `CNc1ccc(C(=O)N2CC[C@@]3(C)c4cccc(O)c4C[C@@H]2C3(C)C)cc1` [Example 48, [(2R,6S)-10-Hydroxy-6,11,11-trimethyl-1,2,5,6-tetrahydro-4H-2,6-methano-benzo[d]azocin-3-yl]-(4-methylamino-phenyl)-methanone], `COc1cccc2c1C[C@H]1N(C(=O)c3ccc4nc[nH]c4c3)CC[C@]2(C)C1(C)C` [Example 76, (3H-Benzoimidazol-5-yl)-[(2R,6S)-10-methoxy-6,11,11-trimethyl-1,2,5,6-tetrahydro-4H-2,6-methano-benzo[d]azocin-3-yl]-methanone] is 2.2-fold lower in IC50: 364 nM for the first, 166 nM for the second.

First: CC12CCN(C(=O)c3ccc4nc[nH]c4c3)C(Cc3ccc(O)cc31)C2 (stereo not shown) [Example 51, (3H-Benzoimidazol-5-yl)-(8-hydroxy-6-methyl-1,2,5,6-tetrahydro-4H-2,6-methano-benzo[d]azocin-3-yl)-methanone]
Second: C[C@@H]1[C@H]2Cc3ccc(O)cc3[C@]1(C)CCN2C(=O)c1ccc2nc[nH]c2c1 [Example 52, (3H-Benzoimidazol-5-yl)-[(2R,6R,11S)-8-hydroxy-6,11-dimethyl-1,2,5,6-tetrahydro-4H-2,6-methano-benzo[d]azocin-3-yl]-methanone]
The IC50 of the first is 6.2-fold higher: 629 nM for the first, 101 nM for the second. The second is the more potent here.

First: C[C@H]1[C@@H]2Cc3ccc(O)cc3[C@@]1(C)CCN2C(=O)c1ccc2nc[nH]c2c1 [Example 53, (3H-Benzoimidazol-5-yl)-[(2S,6S,11R)-8-hydroxy-6,11-dimethyl-1,2,5,6-tetrahydro-4H-2,6-methano-benzo[d]azocin-3-yl]-methanone]
Second: C[C@@H]1[C@@H]2Cc3ccc(O)cc3[C@@]1(C)CCN2C(=O)c1ccc2nc[nH]c2c1 [Example 54, (3H-Benzoimidazol-5-yl)-(8-hydroxy-6,11-dimethyl-1,2,5,6-tetrahydro-4H-2,6-methano-benzo[d]azocin-3-yl)-methanone]
The IC50 of the first is 1.6-fold lower: 321 nM for the first, 529 nM for the second.

Going from `O=C(c1ccc2nc[nH]c2c1)N1CCC2CC1Cc1ccc(O)cc12` (stereo not shown) [Example 55, (3H-Benzoimidazol-5-yl)-(8-hydroxy-1,2,5,6-tetrahydro-4H-2,6-methano-benzo[d]azocin-3-yl)-methanone] to `O=C(c1ccc2nc[nH]c2c1)N1CCC2CC1Cc1ccccc12` (stereo not shown) [Example 60, (3H-Benzoimidazol-5-yl)-(1,2,5,6-tetrahydro-4H-2,6-methano-benzo[d]azocin-3-yl)-methanone], the IC50 falls from 746 nM to 228 nM (3.3-fold). The second is the more potent here.

Compared with `CC1(C)C2Cc3ccc(O)cc3C1(O)CCN2C(=O)c1ccc2nc[nH]c2c1` (stereo not shown) [Example 56, (3H-Benzoimidazol-5-yl)-(6,8-dihydroxy-11,11-dimethyl-1,2,5,6-tetrahydro-4H-4,6-methano-benzo[d]azocin-3-vl)-methanone], `CC12CCN(C(=O)c3ccc4nc[nH]c4c3)C(Cc3ccc(O)cc31)C2(C)C` (stereo not shown) [Example 58, (3H-Benzoimidazol-5-yl)-(8-hydroxy-6,11,11-trimethyl-1,2,5,6-tetrahydro-4H-2,6-methano-benzo[d]azocin-3-yl)-methanone] is 12-fold lower in IC50: 725 nM for the first, 62 nM for the second.

Compared with `CC1(C)C2Cc3ccccc3C1(O)CCN2C(=O)c1ccc2nc[nH]c2c1` (stereo not shown) [Example 57, (3H-Benzoimidazol-5-yl)-(6-hydroxy-11,11-dimethyl-1,2,5,6-tetrahydro-4H-2,6-methano-benzo[d]azocin-3-yl)-methanone], `CC12CCN(C(=O)c3ccc4nc[nH]c4c3)C(Cc3cccc(O)c31)C2(C)C` (stereo not shown) [Example 78, (3H-Benzoimidazol-5-yl)-(7-hydroxy-6,11,11-trimethyl-1,2,5,6-tetrahydro-4H-2,6-methano-benzo[d]azocin-3-yl)-methanone] is 2-fold lower in IC50: 137 nM for the first, 67 nM for the second.

Going from `CC12CCN(C(=O)c3ccc4nc[nH]c4c3)C(Cc3cc(O)ccc31)C2(C)C` (stereo not shown) [Example 59, (3H-Benzoimidazol-5-yl)-(9-hydroxy-6,11,11-trimethyl-1,2,5,6-tetrahydro-4H-2,6-methano-benzo[d]azocin-3-yl)-methanone] to `CC1(C)[C@@H]2Cc3ccc(O)cc3[C@@]1(C)CCN2C(=O)c1ccc2nc[nH]c2c1` [Example 79, (3H-Benzoimidazol-5-yl)-[(2S,6R)-8-hydroxy-6,11,11-trimethyl-1,2,5,6-tetrahydro-4H-2,6-methano-benzo[d]azocin-3-yl]-methanone], the IC50 rises from 36 nM to 1370 nM (38-fold). The first is the more potent here.

Compared with `Cc1ccc2c(c1)C1(C)CCN(C(=O)c3ccc4nc[nH]c4c3)C(C2)C1(C)C` (stereo not shown) [Example 69, (3H-Benzoimidazol-5-yl)-(6,8,11,11-tetramethyl-1,2,5,6-tetrahydro-4H-2,6-methano-benzo[d]azocin-3-yl)-methanone], `CC12CCN(C(=O)c3ccc4nc[nH]c4c3)C(Cc3ccc(F)cc31)C2(C)C` (stereo not shown) [Example 70, (3H-Benzoimidazol-5-yl)-(8-fluoro-6,11,11-trimethyl-1,2,5,6-tetrahydro-4H-2,6-methano-benzo[d]azocin-3-yl)-methanone] is 3.4-fold higher in IC50: 105 nM for the first, 362 nM for the second. The first is the more potent here.

Compared with `COc1cc2c(cc1O)CC1N(C(=O)c3ccc4nc[nH]c4c3)CCC2(C)C1(C)C` (stereo not shown) [Example 71, (3H-Benzoimidazol-5-yl)-(9-hydroxy-8-methoxy-6,11,11-trimethyl-1,2,5,6-tetrahydro-4H-2,6-methano-benzo[d]azocin-3-yl)-methanone], `COc1cc2c(cc1O)C1(C)CCN(C(=O)c3ccc4nc[nH]c4c3)C(C2)C1(C)C` (stereo not shown) [Example 73, (3H-Benzoimidazol-5-yl)-(8-hydroxy-9-methoxy-6,11,11-trimethyl-1,2,5,6-tetrahydro-4H-2,6-methano-benzo[d]azocin-3-yl)-methanone] is 1.9-fold higher in IC50: 47 nM for the first, 88 nM for the second. The first is the more potent here.

Compared with `COc1cc2c(cc1OC)C1(C)CCN(C(=O)c3ccc4nc[nH]c4c3)C(C2)C1(C)C` (stereo not shown) [Example 72, (3H-Benzoimidazol-5-yl)-(8,9-dimethoxy-6,11,11-trimethyl-1,2,5,6-tetrahydro-4H-2,6-methano-benzo[d]azocin-3-yl)-methanone], `COc1ccc2c(c1)C[C@H]1N(C(=O)c3ccc4nc[nH]c4c3)CC[C@]2(C)C1(C)C` [Example 74, (3H-Benzoimidazol-5-yl)-[(2R,6S)-9-methoxy-6,11,11-trimethyl-1,2,5,6-tetrahydro-4H-2,6-methano-benzo[d]azocin-3-yl]-methanone] is 2.1-fold lower in IC50: 148 nM for the first, 69 nM for the second.

Compound `CC12CCN(C(=O)c3ccc4nc[nH]c4c3)C(Cc3ccc(Cl)cc31)C2(C)C` (stereo not shown) [Example 75, (3H-Benzoimidazol-5-yl)-(8-chloro-6,11,11-trimethyl-1,2,5,6-tetrahydro-4H-2,6-methano-benzo[d]azocin-3-yl)-methanone] has an IC50 of 395 nM.

Reference: patent US8859580B2 (Boehringer Ingelheim International GmbH, priority 2007, dated 2014)
